Experimental data reported in patent US12121522B2, “Methods of treating cancer with an mTOR inhibitor” (Revolution Medicines, Inc., priority 2022, dated 2024).
Several values for one entry are separate records, joined by “and”; a condition that tells them apart may be missing. Identical values can stand only once.

How the values were obtained:
[1] = system: murine models of mTORC1-activated cancers; details: mouse, in vivo
Procedure: (§1) The antitumor activity of RMC-5552 as a single agent against tumors predicted to be dependent on the mTOR pathway and/or bearing specific PI3K/mTOR pathway-activating mutations (i.e., PIK3CA^mut, phosphatase and tensin homolog [PTEN^LOF], or co-mutation of both and tuberous sclerosis complex [TSC^LOF]) was evaluated in selected CDX and/or PDX models

[2] = system: HN009 HNSCC PDX; assay: HN009 HNSCC patient-derived xenograft; format: in vivo, mouse
Text: FIGS. 3A-3B show Antitumor Activity of RMC-5552 in the HN009 Patient-Derived Xenograft Model of Human HNSCC Following Once-Weekly Administration. Abbreviations: ANOVA=analysis of variance; IP=intraperitoneal; QW=once weekly. […] Each animal represented as a separate bar. The number of tumor regressions out of total mice in that group is shown (tumor regression defined as >10% reduction in tumor volume from starting volume) in each group.
as §1
(§2) Table 1. RMC-5552 was administered IP once weekly at 1, 3, 10, and 30 mg/kg. In the breast cancer MCF7 PIK3CA^[…] model, a higher dose of 50 mg/kg once weekly and an alternate dose regimen of 30 mg/kg every 10 days were also evaluated.

[3] = system: MCF7 PIK3CA^E545K breast cancer CDX; assay: MCF7 breast cancer xenograft; format: in vivo, mouse
Text: FIGS. 1A-1B show Dose-Dependent Antitumor Effects of Repeated RMC-5552 Weekly Treatment in the MCF7 Xenograft Model of Human Estrogen Receptor Positive Breast Cancer in Athymic Nude Mice. Abbreviations: ANOVA=analysis of variance; IP=intraperitoneal; QW=once weekly. […] Each animal represented as a separate bar. Number of animals per group=12. Numbers indicate number of regressions at respective doses (defined as >10% reduction in tumor volume from starting volume) in each group.
as §1, §2

[4] = system: TOV21G ovarian cancer CDX; assay: TOV21G ovarian cancer xenograft; format: in vivo, mouse
Procedure: FIGS. 2A-2D show Antitumor Activity of RMC-5552 in the TOV21G Cell Line-Derived Xenograft Model of Human Ovarian Cancer Following Once-Weekly Administration. Abbreviations: ANOVA=analysis of variance; IP=intraperitoneal; QW=once weekly. […] Each animal represented as a separate bar. Number of animals per group=10, or n=5 in 3 mg/kg dosing arm. Numbers indicate number of regressions at respective doses (defined as >10% reduction in tumor volume from starting volume) in each group. […] FIG. 2D reflects Kaplan-Meier survival analysis of the time for TOV21G tumors to regrow to a tumor volume of 300 mm^3 following treatment cessation. Median time to regrowth in RMC-5552 3 mg/kg arm is 61 days, while 10 mg/kg dose survival time was undefined, extending past 73 days. Dotted horizontal line indicates time to regrowth of 50% of the tumors in a treatment.
as §1, §2

[5] = system: advanced relapsed/refractory solid tumors; assay: Clinical efficacy (RECIST v1.1), study RMC-5552-001; format: in vivo, human
Procedure: Refer to FIG. 7 for a waterfall plot of best response in subjects treated at majority dose of 6 mg or 8 mg IV weekly (one hour infusion).
Subjects were evaluated at doses of 6 mg and higher. […] One patient discontinued treatment due to clinical progression without post-baseline scans. Three patients experienced radiographic progressive disease (PD).

[6] = system: BXF 2211 TSC1^-/- bladder cancer; assay: BXF 2211 bladder cancer xenograft; format: in vivo, mouse
Procedure: as §1, §2

[7] = system: tumor p4EBP1; assay: PK-pharmacodynamics of tumor p4EBP1 and pS6RP in MCF7 tumor-bearing mice; format: in vivo, mouse
Text: FIGS. 4A-4C show Pharmacokinetic-Pharmacodynamic Profile for RMC-5552 Modulation of Tumor p4EBP1 and pS6RP in MCF7 Tumor Bearing Athymic Nude Mice. Abbreviations: IP=intraperitoneal; p4EBP1=phosphorylated eukaryotic translation initiation factor 4E-binding protein 1; PK=pharmacokinetic; pS6RP=phosphorylated S6 ribosomal protein; u=unbound. […] Data represent means±standard errors (n=3).
Colors of symbols denote time of tissue harvest following IP administration of a single dose of RMC-5552. […] Data represent means standard errors (n=3).
The in vivo PK-pharmacodynamic relationship for inhibition of activated mTOR pathway signaling of RMC-5552 as a single agent was determined in the breast cancer MCF7 and HCC-1954 PIK3CA mutant CDX models.
Consistent with inhibition of mTORC1 signaling in vitro, IP administration of RMC-5552 to nude mice produced a dose and plasma concentration-dependent-inhibition of tumor p4EBP1 and pS6RP (a direct substrate of P70S6K) in PI3K mutant breast cancer MCF7 xenograft models FIG. 5. Inhibition of p4EBP1 was maximal at 24 to 48 hours after treatment.

[8] = 13 efficacy-evaluable patients at ≥6 mg
[9] = 27 efficacy-evaluable subjects, majority doses 6 mg or 8 mg IV weekly
[10] = endometrial PIK3CA, PTEN, TSC2, 8 mg QW
[11] = uterine CaSarc TSC1 LOF, 10 mg single dose, 6 mg QW

In the case of `CO[C@H]1C[C@@H]2CC[C@@H](C)[C@@](O)(O2)C(=O)C(=O)N2CCCC[C@H]2C(=O)O[C@H]([C@H](C)C[C@@H]2CC[C@@H](OC(=O)NCCOCCOCCOCCOCCOCCOCCOCCOCCC(=O)N3CCc4cc(Cn5nc(-c6ccc7oc(N)nc7c6)c6c(N)ncnc65)ccc4C3)[C@H](OC)C2)C[C@@H](O)[C@H](C)/C=C(\C)[C@@H](O)[C@@H](OC)C(=O)[C@H](C)C[C@H](C)/C=C/C=C/C=C/1C` [RMC-5552], the “tolerability of doses and regimens” value [1] is reported as “generally well-tolerated”, the TGI ([2]; 3 mg/kg IP QW) is reported as 91% and the tumor regression ([2]; 10 mg/kg IP QW) is reported as 17% regression. The TGI ([3]; 1 mg/kg IP QW) was 64%, the TGI ([3]; 3 mg/kg IP QW) was 93% and the TGI ([3]; 10 mg/kg IP QW) was 93%. For the same compound, the tumor regression ([3]; dose not printed on this line) was 15% regression, the tumor regression ([4]; 3 mg/kg IP QW) was 34% regression and the “median time to regrowth to 300 mm^3 after treatment cessation” value ([4]; 3 mg/kg QW IP, 4 doses) was 61 days. The tumor regression ([4]; 10 mg/kg IP QW) was 61% regression, the “time to regrowth to 300 mm^3 after treatment cessation (undefined)” value ([4]; 10 mg/kg QW IP, 4 doses) was > 73 days and the “best response of stable disease (SD), subjects” value [5, 8] was 8. For the same compound, the “confirmed partial response (PR), subjects” value [5, 8] was 1, the “discontinued due to clinical progression without post-baseline scans, patients” value [5, 8] was “One” and the “radiographic progressive disease (PD), patients” value [5, 8] was “Three”. For the same compound, the “Disease Control Rate (DCR)” value [5, 9] was 74.1%, the “subjects with confirmed partial response” value [5, 9] was “one” and the “subjects with stable disease as best response” value [5, 9] was 19. The RECIST reduction ([5]; 67F NSCLC STK11, TSC2, KRAS L19F, 8 mg QW) was 4% reduction, the RECIST reduction ([5]; 76F NSCLC BRAF fusion, 10 mg single dose, 6 mg QW) was 22% and the “reduction in sum of target lesions (RECIST), subject with confirmed PR” value ([5]; H&N (salivary gland) cancer, PTEN mutation, 12 mg single dose then 6 mg QW) was 77.6% and 77%. For the same compound, the “subjects with Partial Response (PR)” value ([5]; cancer with PTEN mutation) was 1, the “CA125, nadir” value [5, 10] was “to nadir of 254; 9+ months” and the “CA125, peak” value [5, 10] was “CA125 from peak of 1465”. For the same compound, the RECIST reduction [5, 10] was 7% reduction, the “subjects with Partial Response (PR)” value ([5]; head and neck cancer, PTEN mutation) was 1 and the “RECIST increase (mixed)” value ([5]; ovarian CA TSC1 LOF, 6 mg QW) was 19% increase. The “reduction in CA125” value ([5]; ovarian CA TSC1 LOF, 6 mg QW) was 72% reduction in CA125, the “reduction in FDG avidity by PET/CT” value ([5]; ovarian CA TSC1 LOF, 6 mg QW) was “Strong: 50% reduction in” and the “reduction in tumor size, 1 subject” value ([5]; salivary gland cancer) was 63%. The RECIST reduction [5, 11] was 4.4%, the “reduction in CA125” value [5, 11] was “Strong: 37% reduction in” and the tumor regression ([6]; 3 mg/kg IP QW) was 91% regression. For the same compound, the tumor regression ([6]; 10 mg/kg IP QW) was 94% regression, the “maximum level of inhibition of p4EBP1 relative to control” value ([7]; MCF7, single IP dose) was > 90% and the EC50 ([7]; unbound plasma concentration, MCF7, read-out: in vivo EC50 for inhibition of p4EBP1) was 0.22 nM.
